For experiment [1], the system named is female mosquito Culex pipiens antenna. The experiment in a line: GC-EAD antennal response, Culex pipiens. Particulars: female Culex pipiens antennae; about 100 ng of each compound; responses weak, but repeatable; FIGS. 7 and 8. On the procedure:
The GC-EAD responses of the female mosquito Culex pipiens antenna were tested on a synthetic mixture of 1-octen-3-ol, and two sesquiterpene hydrocarbons, β-caryophyllene and isocaryophyllene, with about 100 ng of each compound in the mixture.
The GC-EAD responses of the female mosquito Culex pipiens antenna were tested on a synthetic mixture of 1-octen-3-ol, and representative sesquiterpene hydrocarbons and derivatives including (+)-longipinene, (−)-isolongifolene, (+)-longifolene, β-caryophyllene, and isolongifolenone, with about 100 ng of each compound in the mixture.
Antennal responses were weak, but repeatable, thus are considered to be true responses.
(§1) The following procedures were employed to test the EAD response of an insect antenna to a repellent compound. The GC-EAD technique provides an efficient tool for screening behaviorally active repellents. Several synthetic mixtures of potential insect repellent candidates, mostly sesquiterpene hydrocarbons and derivatives, were analyzed in splitless mode using a Varian CP-3800 GC equipped with a polar column (Innowax; 1.0 μm film thickness, 30 m×0.53 mm ID; J & W Scientific), and a 1:1 effluent splitter that allowed simultaneous flame ionization detection (FID) and EAD of the separated volatile compounds. Helium was used as the carrier gas, and the injector temperature was 220° C. The column temperature was 50° C. for 2 min, rising to 240° C. at 10° C./min, then held for 10 min. The outlet for the EAD was held in a humidified air stream flowing at 0.5 liter/min. over an antennal preparation. A glass capillary indifferent electrode filled with Beadle-Ephrussi Ringer, and grounded via a silver wire, was inserted into the severed insect's head with the antennae. A similar recording electrode connected to a high-impedance DC amplifier with automatic baseline drift compensation was placed in contact with the distal end of one antenna (Zhang et al., Chemoecology, 10:69-80 (2000)). The antennal signals were stored and analyzed on a PC equipped with a serial IDAC interface box and the program EAD ver. 2.5 (Syntech, Hilversum, The Netherlands). The compound 1-octen-3-ol (known attractant for many flies and mosquitoes) was included in most of the synthetic mixtures, as a positive control. The results of the experiments are shown in FIGS. 1-10 and described above.

The test system of experiment [2] is antennae of housefly, sand fly, and mosquitoes Aedes aegypti, Anopheles gambiae, Anopheles stephensi. Description: GC-EAD antennal responses to SPME samples of clove essential oil. Particulars: component of clove essential oil SPME sample; response by one or more of the insects; FIG. 1. As to the method:
The GC-EAD antennal response of a female housefly (Musca domestica), sand fly (Phlebotomus papatasi), and mosquitoes including the species Aedes aegypti, Anopheles gambiae, and Anopheles stephensi were tested with clove essential oil. FIG. 1 is a simultaneous recording of GC flame ionization detection (FID) and electroantennographic detection (EAD) of the insect antennae to solid phase microextraction (SPME: CAR/PDMS) samples of clove essential oil in a 20 ml glass vial for 20 sec.
as §1, with “The results of the experiments are shown in FIGS. 1-10 and described above.” left out

Experiment [3] relates to antennae of housefly, sand fly, and mosquitoes (Aedes aegypti, Aedes increpitus, Anopheles gambiae). The experiment in a line: GC-EAD antennal responses to SPME samples of patchouli essential oil. The note with it: component of patchouli essential oil SPME sample; response by one or more of the insects; FIG. 2. On the procedure: as §1, with “control.” for “control. The results of the experiments are shown in FIGS. 1-10 and described above.”

For experiment [4], the system named is male false stable fly Muscina stabulans antenna and female mosquito Aedes (Ochlerotatus) increpitus Dyar antenna. The experiment in a line: GC-EAD responses of false stable fly and Aedes increpitus to a synthetic mixture. The note with it: about 100 ng of each compound, FIG. 5. As to the method: The GC-EAD responses of the male false stable fly Muscina stabulans antenna and the female mosquito Aedes (Ochlerotatus) increpitus Dyar antenna were tested on a synthetic mixture of linalool and two representative sesquiterpene hydrocarbons, β-caryophyllene and α-humulene, and one sesquiterpene oxide, β-caryophyllene oxide, with about 100 ng of each compound in the mixture.
as §1

For experiment [5], the system named is antennae of Musca domestica, Lucillia sericata, Sarcophaga sp., Muscina stabulans, Culex pipiens, Aedes increpitus. The experiment in a line: GC-EAD responses of several flies and two mosquitoes to a synthetic mixture. Particulars: about 100 ng of each compound, FIG. 6. On the procedure: The GC-EAD responses of several species of flies and two species of mosquito antennae were tested on a synthetic mixture of 1-octen-3-ol, linalool, two representative sesquiterpene hydrocarbons, β-caryophyllene and α-humulene, ZE-nepetalactone, EZ-nepetalactone, and two known insect repellents, DEET, and SS220, with about 100 ng of each compound in the mixture. DEET and SS220 are used as positive controls in the experiment. The compound 1-octen-3-ol is a known attractant for the insects and is also used as a positive control. The insects tested are species of Musca domestica, Lucillia sericata, Sarcophaga sp., Muscina stabulans, Culex pipiens, and Aedes increpitus.
as §1, with “2.5 (Syntech, Hilversum, The Netherlands). The compound 1-octen-3-ol (known attractant for many flies and mosquitoes) was included in most of the synthetic mixtures, as a positive control. The results of the experiments are shown in FIGS. 1-10 and described above.” left out

This passage reports GC-EAD antennal activity results from patent US8057829B2, “Methods for repelling insects using sesquiterpene hydrocarbons and their derivatives” (Sterling International Inc., priority 2008, dated 2011).

The structures appear in SMILES notation.

As for `C=C1C2CCC3[C@H]2C(C)(C)CCC[C@]13C` (single isomer, unassigned; (+)) [(+)-Longifolene], the GC-EAD antennal activity result in experiment [1] was “active”.

On to `C=C1CC/C=C(/C)CC[C@@H]2[C@@H]1CC2(C)C` [Isocaryophyllene, isocaryophyllene], for which the GC-EAD antennal activity result in experiment [1] is “active”.

As for `C=C1CC/C=C(\C)CC[C@@H]2[C@@H]1CC2(C)C` [β-Caryophyllene, β-caryophyllene], the GC-EAD antennal activity entry in experiment [1] is listed as “active”; in experiment [2], “EAD-active”; in experiment [3], “elicited EAD-activity”; in experiment [4], “active on at least one of the insects tested”; in experiment [5] it was “active on at least one of the insects tested”.
